For test [1], the target named is Transmembrane protease serine 4 (Homo sapiens) (UniProt Q9NRS4). Description: Inhibition of TMPRSS4 serine protease domain (Val 205 to Leu 437 residues) (unknown origin) expressed in Escherichia coli BL21 (DE3) at 10 uM using […]-Gln-Ala-Arg-7-amido-4-methylcoumarin hydrochloride substrate and measured for 5 mins at 5 mins intervals by fluorescence based assay relative to control.

The target is the same in test [2]. Kind of test: Inhibition of TMPRSS4 (unknown origin) expressed in human SW480 cells assessed as reduction in cell migration at 0.8 uM incubated for 48 hrs by crystal violet staining based assay relative to control.
The target is the same in test [3]. Kind of test: Inhibition of TMPRSS4 serine protease domain (Val 205 to Leu 437 residues) (unknown origin) expressed in Escherichia coli BL21 (DE3) using […]-Gln-Ala-Arg-7-amido-4-methylcoumarin hydrochloride substrate and measured for 5 mins at 5 mins intervals by fluorescence based assay relative to control.
The target is the same in test [4]. Description: Inhibition of TMPRSS4 serine protease domain (Val 205 to Leu 437 residues) (unknown origin) expressed in Escherichia coli BL21 (DE3) at 30 uM using […]-Gln-Ala-Arg-7-amido-4-methylcoumarin hydrochloride substrate and measured for 5 mins at 5 mins intervals by fluorescence based assay relative to control.
Test [5] has the same target. Kind of test: Inhibition of TMPRSS4 (unknown origin) expressed in human SW480 cells assessed as reduction in cell migration at 5 uM incubated for 48 hrs by crystal violet staining based assay relative to control.
For test [6] the target is unchanged. Kind of test: Inhibition of TMPRSS4 serine protease domain (Val 205 to Leu 437 residues) (unknown origin) expressed in Escherichia coli BL21 (DE3) at 100 uM using […]-Gln-Ala-Arg-7-amido-4-methylcoumarin hydrochloride substrate and measured for 5 mins at 5 mins intervals by fluorescence based assay relative to control.
Test [7] has the same target. Description: Inhibition of TMPRSS4 (unknown origin) expressed in human SW480 cells assessed as reduction in cell migration at 25 uM incubated for 48 hrs by crystal violet staining based assay relative to control.
Test [8] has the same target. Description: Inhibition of TMPRSS4 (unknown origin) expressed in human SW480 cells assessed as reduction in cell migration at 2 uM incubated for 48 hrs by crystal violet staining based assay relative to control.

Sequence of Transmembrane protease serine 4 (Homo sapiens) (Q9NRS4 whole entry, the tested form may be a part): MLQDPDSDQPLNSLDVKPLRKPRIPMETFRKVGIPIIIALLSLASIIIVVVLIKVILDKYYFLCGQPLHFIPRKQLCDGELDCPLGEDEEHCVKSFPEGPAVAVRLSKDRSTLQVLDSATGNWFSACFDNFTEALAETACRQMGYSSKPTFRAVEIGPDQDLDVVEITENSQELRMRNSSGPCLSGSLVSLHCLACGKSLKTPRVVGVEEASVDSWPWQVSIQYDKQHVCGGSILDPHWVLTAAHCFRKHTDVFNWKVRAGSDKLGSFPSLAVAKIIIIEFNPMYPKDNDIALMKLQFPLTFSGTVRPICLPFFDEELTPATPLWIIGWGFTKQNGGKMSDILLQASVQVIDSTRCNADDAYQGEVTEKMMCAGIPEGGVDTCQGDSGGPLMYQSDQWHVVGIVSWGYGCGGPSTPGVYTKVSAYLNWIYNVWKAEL

By inhibition is commonly meant the change of the read-out against control, counted positive when it falls. `O=C(Nc1cc(C(F)(F)F)cc(C(F)(F)F)c1)c1cc2ccccc2cc1O`: the inhibition was 58% in test [1], 72% in test [2], “Dose-dependent effect” in test [3] and 96% in test [4].

Turning to `O=C(Nc1nnc(C(F)(F)F)s1)c1cc(Cl)ccc1O`, the inhibition in test [5] is 29%; in test [6], 100%; in test [3], “Dose-dependent effect”; in test [4], 75%.

For `N#Cc1cccc(NC(=O)c2cc(Cl)ccc2O)c1`, the inhibition in test [6] is 88%; in test [1], 12%; in test [3] it was “Dose-dependent effect”; in test [4] it was 47%.

`O=C(Nc1ccc(Cl)c(C(F)(F)F)c1)c1cc(Cl)ccc1O`: the inhibition is 99% in test [6]; 71% in test [1]; 68% in test [2]; “Dose-dependent effect” in test [3]; 95% in test [4].

Take `O=C(Nc1ccc(Br)c(C(F)(F)F)c1)c1cc(Cl)ccc1O`: the inhibition in test [6] was 98%; in test [1] it was 30 to 80%; in test [3], “Dose-dependent effect”; in test [4], 46 to 93%.

Consider `COc1cc(NC(=O)c2cc(Cl)ccc2O)cc(C(F)(F)F)c1`, for which the inhibition is 99% in test [6]; 67% in test [1]; 49% in test [2]; “Dose-dependent effect” in test [3]; 88% in test [4].

In the case of `O=C(Nc1cnc2ccccc2c1)c1cc(Cl)ccc1O`, the inhibition in test [7] was 51%; in test [6], 75%; in test [3], “Dose-dependent effect”; in test [4] it was 8%.

Take `O=C(Nc1cc(C(F)(F)F)ccc1Cl)c1cc(Cl)ccc1O`: the inhibition in test [6] was 100%; in test [1] it was 64%; in test [3], “Dose-dependent effect”; in test [4], 99%.

For `N#Cc1ccc(NC(=O)c2cc(Cl)ccc2O)cc1C(F)(F)F`, the inhibition in test [8] is 81%; in test [6], 100%; in test [3] it was “Dose-dependent effect”; in test [4], 88%.

On to `O=C(Nc1ccc(C(F)(F)F)cc1[N+](=O)[O-])c1cc(Cl)ccc1O`, for which the inhibition in test [1] was 53%; in test [2] it was 76%; in test [3], “Dose-dependent effect”; in test [4], 98%.

Regarding `O=C(Nc1cc(C(F)(F)F)ccc1F)c1cc(Cl)ccc1O`, the inhibition was 100% in test [6], 67 to 100% in test [1], “Dose-dependent effect” in test [3] and 100% in test [4].

Turning to `O=C(Nc1cc(Br)cc(C(F)(F)F)c1)c1cc(Cl)ccc1O`, the inhibition in test [6] was 100%; in test [1], 64%; in test [3] it was “Dose-dependent effect”; in test [4], 100%.

In the case of `O=C(Nc1cc(C(F)(F)F)cc(C(F)(F)F)c1)c1cc(Cl)ccc1O`, the inhibition in test [6] was 100%; in test [1], 64%; in test [2], 76%; in test [3], “Dose-dependent effect”; in test [4] it was 96%.

`O=C(Nc1ccc(Cl)cn1)c1cc(Cl)ccc1O`: the inhibition was 55% in test [6], “Dose-dependent effect” in test [3] and 14% in test [4].

Regarding `O=C(Nc1nc(-c2ccccc2)cs1)c1cc(Cl)ccc1O`, the inhibition in test [8] was 75%; in test [6], 98%; in test [3], “Dose-dependent effect”; in test [4], 91%.

`N#Cc1ccc(NC(=O)c2cc(Cl)ccc2O)nc1`: the inhibition in test [5] is 44%; in test [1] it was 26%; in test [3], “Dose-dependent effect”; in test [4], 63%.

`O=C(Nc1ccc(F)c(C(F)(F)F)c1)c1cc(Cl)ccc1O`: the inhibition is 98% in test [6], 64% in test [1], “Dose-dependent effect” in test [3] and 86% in test [4].

On to `O=C(Nc1ncc(C(F)(F)F)cc1Cl)c1cc(Cl)ccc1O`, for which the inhibition in test [6] is 0%; in test [3] it was “Dose-dependent effect”; in test [4], 0%.

In the case of `N#Cc1ccc(NC(=O)c2cc(Cl)ccc2O)c(Cl)c1`, the inhibition in test [8] is 54%; in test [6], 100%; in test [3] it was “Dose-dependent effect”; in test [4] it was 92%.
